Results on 2 compounds are retold here after paper PMC2885805 (Pesticide biochemistry and physiology, 2010).

In experiment [1] the test system is non-desensitizing GluCl (cockroach neurons). Kind of experiment: whole-cell patch clamp, glutamate-induced chloride current. It counts as cell-based, Periplaneta americana. Particulars: cited from earlier work.
A further experiment relates to cockroach GABA receptor. Kind of experiment: whole-cell patch clamp, GABA-induced chloride current. It counts as cell-based, Periplaneta americana. Particulars: resting receptor; holding potential −60 mV, symmetric chloride; cited from earlier work.
Experiment [2] has as its system desensitizing GluCl (cockroach neurons). Kind of experiment: whole-cell patch clamp, glutamate-induced chloride current. The format is cell-based, Periplaneta americana. Particulars: peak current measured; cited from earlier work.
The next experiment concerns rat GABAA receptor. The experiment can be described thus: whole-cell patch clamp, GABA-induced chloride current. It counts as cell-based. Particulars: closed channel; rat dorsal root ganglion neurons; cited from earlier work.
Experiment [3] concerns desensitizing GluCl (cockroach neurons). Kind of experiment: whole-cell patch clamp, glutamate-induced chloride current. Particulars: 30 μM picrotoxinin; desensitizing component. The format is cell-based, Periplaneta americana.

Each structure is given as a SMILES string.

With `N#Cc1nn(-c2c(Cl)cc(C(F)(F)F)cc2Cl)c(N)c1[S+]([O-])C(F)(F)F` (stereo not drawn) [fipronil], the IC50 is 10 ± 0.9 nM in experiment [1] (steady-state current measured, use-dependent open-channel block); 28 nM in the experiment on cockroach GABA receptor; 801 ± 207 nM in experiment [2]; 1660 nM in the experiment with rat GABAA receptor.
As for `C=C(C)[C@@H]1[C@H]2OC(=O)[C@@H]1[C@]1(O)C[C@H]3O[C@]34C(=O)O[C@H]2[C@]14C` [picrotoxinin], the “% inhibition at 30 μM” value in experiment [3] is recorded as 8.2 ± 2.9%. In addition, the IC50 in experiment [1] (non-desensitizing component) is 4100 ± 1000 nM.
